One block for each compound: values may come before it.
Experiments:
isolated mitochondria = test: calcium induced mitochondrial damage (swelling, OD at 535 nm) in isolated heart mitochondria; type: biochemical, rat; conditions: 10^−14-10^−12 M; 33 μM CaCl2
Method: FIG. 6 depicts the protective effect of epicatechin on calcium induced mitochondrial damage (as measured by mitochondrial swelling). Swelling was evaluated by monitoring changes in optical density (OD, light absorbance) as follows: Hearts from male rats were excised and weighed. Left ventricles were homogenized (0.1 g/mL) in solution A (Sucrose 2M, EDTA 0.01M, Hepes 0.5M: pH=7.4), centrifuged 10 min (800×g), 4° C., the supernatant was centrifuged 10 min (8000×g), 4° C. and the pellet was re-suspended in solution B (Sucrose 2M, EDTA 0.01M, Tris 0.5M-H2PO4-50 mM: pH=7.4) and centrifuged 10 min (10000×g), 4° C. […] Pellet was re-suspended in 10 mL of solution C (Sucrose 2M, EDTA 0.01M, Tris 0.5M, H2PO4 50 mM, Succinate 1M: pH=7.4).

[1] = system: mitochondrial permeability transition pores; conditions: cited from earlier work
[2] = system: differentiated human skeletal muscle cells; test: mitochondrial respiration (oxygen consumption rate, Seahorse apparatus) in differentiated human skeletal muscle cells; type: cell-based; conditions: cells treated with 30 nM epicatechin for 48 h
Method: FIG. 1 depicts epicatechin stimulation on-demand mitochondrial respiration in human cells. […] Rates of respiration are reported as oxygen consumption rates (OCR) and were measured using a Seahorse apparatus.
FIG. 2 depicts blockade of epicatechin's stimulatory effect by an inhibitor of pyruvate transport.

[3] = system: mitochondrial oxidative phosphorylation (OXPHOS) related complexes; test: Western blot of OXPHOS complexes in skeletal muscle of prednisolone-treated rats; type: in vivo; conditions: prednisolone 10 mg/kg/day SC, 10 days, rat quadriceps
Method: FIG. 3 depicts the effects of the administration of 10 consecutive days of prednisolone (10 mg/kg/day, SC) on rat skeletal muscle mitochondrial oxidative phosphorylation (OXPHOS) related complexes levels as assessed by Western blots. Three groups of male rats were analyzed: 1) control group (saline solution, SC and saline solution by gavage BID); 2) prednisolone (10 mg/kg/day, SC and saline solution by gavage BID); and 3) prednisolone (10 mg/kg/day, SC) plus epicatechin (Epi; 1 mg/kg/day by gavage BID). Western blots of isolated skeletal muscle (quadriceps) from each group were probed with a cocktail of monoclonal antibodies to electron transport chain proteins (OXPHOS) (20 KDa subunit of complex I, 26 KDa subunit of complex IV, subunit core 2 of complex III, 30 KDa complex II and ATP synthase 54 Kda complex V). […]
Western blots were performed as follows: Approximately 50 mg of the heart and quadriceps femoris muscles were homogenized with a polytron in 500 μl lysis buffer (1% triton X-100, 20 mM Tris, 140 mM NaCl, 2 mM EDTA, and 0.1% SDS) with protease and phosphatase inhibitor cocktails (P2714 and P2850, Sigma-Aldrich, St. Louis, Mo.) supplemented with 0.15 mM PMSF, 5 mM Na3VO4 and 3 mM NaF. […] The total protein content was measured in the supernatant using the Bradford method. […] The band intensities were digitally quantified using ImageJ software.

[4] = fasting glucose levels in prednisolone-treated rats; type: in vivo, rat; conditions: prednisolone 10 mg/kg/day SC, 10 days
Method: Three groups of male rats were analyzed: 1) control group (saline solution, SC and saline solution by gavage BID); 2) prednisolone (10 mg/kg/day, SC and saline solution by gavage BID) and; 3) prednisolone (10 mg/kg/day, SC) plus epicatechin (Epi; 1 mg/kg/day by gavage BID). Blood samples were obtained from animals on each group after 12 hours fasting, Glucose levels were determined spectrophotometrically with an autokit glucose (Wako) kit.

[5] = oral glucose tolerance test in prednisolone-treated rats; type: in vivo, rat; conditions: prednisolone 10 mg/kg/day SC, 10 days; oral glucose 1.25 g/Kg, 0-4 hours
Method: Blood samples were obtained from animals on each group from 0-4 hours after an oral glucose charge (1.25 g/Kg). Glucose levels were determined spectrophotometrically with an autokit glucose (Wako) kit.

SMILES: O=C(NCCO[N+](=O)[O-])c1cccnc1 [Nicorandil, N-[2-(Nitroxy)ethyl]-3-pyridinecarboxamide]
- calcium induced mitochondrial swelling (isolated mitochondria): blocks in a dose dependent manner
- mitochondrial pore formation in response to ischemia [1]: prevent mitochondrial pore formation

SMILES: N#CC(=Cc1ccccc1)C(=O)O [a-cyannocinnamate]
- blockade of epicatechin-stimulated maximal rates of respiration [2]: blocked

SMILES: OCC1OC(O)CC(O)C1O (stereo not shown) [deoxyglucose]
- blockade of epicatechin-stimulated maximal rates of respiration [2]: not by deoxyglucose

- skeletal muscle mitochondrial complex (I-V) levels [3]: reduced
- glucose levels after 12 hours fasting [4]: significant hyperglycemia
SMILES: C[C@]12C=CC(=O)C=C1CC[C@@H]1[C@@H]2[C@@H](O)C[C@@]2(C)[C@H]1CC[C@]2(O)C(=O)CO [prednisolone]
- oral glucose tolerance [5]: Abnormal glucose tolerance
